According to patent publication US20030022158A1, “Peptides from the TT virus sequence and monospecific antibodies binding to the TT virus” (priority 1999, published 2003):

Key:
[1] = tested on: human IgG antibodies in human serum samples; test: EIA of human antibody reactivities to overlapping synthetic peptides of TTV ORF1 and ORF2 (Tables 2 and 3); format: binding; settings: for reactivity with serum samples from patients with TTV infection: eight samples with TTV infection; for optical density (OD) at 405 nm: serum diluted 1:100, OD over 0.500 considered positive
Procedure, shortened: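 Human serum diluted 1:100 was tested for IgG binding to 18-residue overlapping TTV peptides coated at 10 μg/ml (pH 9.6 carbonate, 48 h). Blocking buffer held BSA, goat serum and Tween 20. Alkaline phosphatase anti-human IgG gave a signal measured as OD at 405 nm.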

[2] = tested on: anti-TTV antibodies present in human serum; test: Inhibition of serum reactivity to plate-bound peptide by peptide in solution; format: binding; settings: peptide SEQ ID NO: 1 on the microplate
[3] = tested on: human antibodies in human serum samples P4, P6, P7; test: EIA reactivities of serial dilutions of three human serum samples with TTV peptide SEQ ID NO: 1 (Table 5); format: binding
Method: The EIAs used to identify which peptides interacted with human sera followed protocols known in the art. (See Zhang et al., J Gen Virol, 78:2735-2746 (1997), herein expressly incorporated by reference in its entirety). Briefly, microplates (Nunc, Denmark) were coated for 48 hours with synthetic peptides at a concentration of 10 μg/ml in 0.05M sodium carbonate buffer pH 9.6. […] Bound human IgG was detected by incubation with anti-human IgG antibodies conjugated to alkaline phosphatase (Sigma Chemicals, St. Louis, Mo.). The plates were developed by the addition of […] (Sigma) and the optical densities were determined at 405 nm.

Balb/c mice = test: Immunization of Balb/c mice with TTV peptide 35, anti-peptide antibody titers; format: in vivo, mouse; settings: five Balb/c mice, 100 μg intra-peritoneally in complete Freund's adjuvant, booster week four
Method: A total of five Balb/c mice were immunized intra-peritoneally with 100 μg of TTV peptide 35 (SEQ ID NO: 1) emulsified 1:1 in complete Freund's adjuvant. Venous blood samples were obtained on weeks 2, 4, and 6. A booster dose of 100 μg in incomplete Freund's adjuvant was given on week four. […] The anti-peptide titers were 1:60 at week 4 and 1:2160 at week 6. […] The following section describes more on the production of antibodies specific for TTV.

[4] = tested on: human antibodies in human serum samples; test: EIA reactivities of three human serum samples with deletion and alanine substitution analogues of SEQ ID NO: 1 (Table 6); format: binding; settings: positive = more than 50% of the reactivity of the original peptide
Procedure, shortened: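 Plates coated 48 hours with synthetic peptides at 10 μg/ml in carbonate buffer pH 9.6, blocked, then incubated with human sera diluted 1:100. Bound human IgG detected with alkaline phosphatase anti-human IgG; OD read at 405 nm, mapping deletion and alanine-substitution analogues of SEQ ID NO: 1.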

With “TATTTTYAYPGTNRPPV (Peptide Immunogen) [peptide 35, overlapping synthetic peptide of TTV ORF1]” the “reactivity with serum samples from patients with TTV infection” value ([1]; EIA) was “reactive to most of the TTV infected serum samples”, the “reactivity with serum samples from patients with TTV infection” value ([1]; EIA, listed as TATTTTYAYPGTNRPPV) was “Every sample from patients with TTV infection was found to be reactive” and the “optical density (OD) at 405 nm” value ([1]; human serum sample 1, negative for TTV DNA by PCR) was 0.18 OD. For the same sequence, the “optical density (OD) at 405 nm” value ([1]; human serum sample 2, negative for TTV DNA by PCR) was 0.17 OD, the “optical density (OD) at 405 nm” value ([1]; human serum sample 3, negative for TTV DNA by PCR) was 0.27 OD and the “optical density (OD) at 405 nm” value ([1]; human serum sample 4, negative for TTV DNA by PCR) was 1.40 OD. For the same sequence, the “optical density (OD) at 405 nm” value ([1]; human serum sample 5, negative for TTV DNA by PCR) was 0.25 OD, the “optical density (OD) at 405 nm” value ([1]; human serum sample 6, negative for TTV DNA by PCR) was 0.64 OD and the “optical density (OD) at 405 nm” value ([1]; human serum sample 7, negative for TTV DNA by PCR) was 2.10 OD. The “optical density (OD) at 405 nm” value ([1]; human serum sample 9, positive for TTV DNA by PCR) was 0.10 OD, the “optical density (OD) at 405 nm” value ([1]; human serum sample 11, negative for TTV DNA by PCR) was 0.64 OD and the “optical density (OD) at 405 nm” value ([1]; human serum sample 18, positive for TTV DNA by PCR) was 0.10 OD. For the same sequence, the “optical density (OD) at 405 nm” value ([1]; human serum sample 36, positive for TTV DNA by PCR) was 1.22 OD, the “optical density (OD) at 405 nm” value ([1]; human serum sample 48, positive for TTV DNA by PCR) was 1.11 OD and the “optical density (OD) at 405 nm” value ([1]; human serum sample 98, positive for TTV DNA by PCR) was 0.05 OD. For the same sequence, the “optical density (OD) at 405 nm” value ([1]; human serum sample 110, positive for TTV DNA by PCR) was 0.47 OD, the “optical density (OD) at 405 nm” value ([1]; human serum sample 155, positive for TTV DNA by PCR) was 0.95 OD and the “optical density (OD) at 405 nm” value ([1]; human serum sample 157, positive for TTV DNA by PCR) was 0.86 OD. The “human reactivity to peptide (reactive peptides within ORF1)” value ([1]; tested human sera, EIA) was “Reactive”, the “inhibition of serum reactivity to the peptide on the microplate by peptide in solution” value [2] was “inhibited” and the “OD at 405 nm” value ([3]; human serum sample P4, dilution of serum sample 1:100) was 1.285 OD. The “OD at 405 nm” value ([3]; human serum sample P4, dilution of serum sample 1:200) was 0.758 OD, the “OD at 405 nm” value ([3]; human serum sample P4, dilution of serum sample 1:400) was 0.411 OD and the “OD at 405 nm” value ([3]; human serum sample P4, dilution of serum sample 1:800) was 0.234 OD. The “OD at 405 nm” value ([3]; human serum sample P4, dilution of serum sample 1:1600) was 0.131 OD, the “OD at 405 nm” value ([3]; human serum sample P4, dilution of serum sample 1:3200) was 0.076 OD and the “OD at 405 nm” value ([3]; human serum sample P4, dilution of serum sample 1:6400) was 0.058 OD. The “OD at 405 nm” value ([3]; human serum sample P4, dilution of serum sample 1:12800) was 0.046 OD, the “OD at 405 nm” value ([3]; human serum sample P6, dilution of serum sample 1:100) was 0.687 OD and the “OD at 405 nm” value ([3]; human serum sample P6, dilution of serum sample 1:200) was 0.375 OD. For the same sequence, the “OD at 405 nm” value ([3]; human serum sample P6, dilution of serum sample 1:400) was 0.19 OD, the “OD at 405 nm” value ([3]; human serum sample P6, dilution of serum sample 1:800) was 0.104 OD and the “OD at 405 nm” value ([3]; human serum sample P6, dilution of serum sample 1:1600) was 0.067 OD. For the same sequence, the “OD at 405 nm” value ([3]; human serum sample P6, dilution of serum sample 1:3200) was 0.049 OD, the “OD at 405 nm” value ([3]; human serum sample P6, dilution of serum sample 1:6400) was 0.043 OD and the “OD at 405 nm” value ([3]; human serum sample P6, dilution of serum sample 1:12800) was 0.041 OD. For the same sequence, the “OD at 405 nm” value ([3]; human serum sample P7, dilution of serum sample 1:100) was 1.782 OD, the “OD at 405 nm” value ([3]; human serum sample P7, dilution of serum sample 1:200) was 1.23 OD and the “OD at 405 nm” value ([3]; human serum sample P7, dilution of serum sample 1:400) was 0.79 OD. For the same sequence, the “OD at 405 nm” value ([3]; human serum sample P7, dilution of serum sample 1:800) was 0.45 OD, the “OD at 405 nm” value ([3]; human serum sample P7, dilution of serum sample 1:1600) was 0.246 OD and the “OD at 405 nm” value ([3]; human serum sample P7, dilution of serum sample 1:3200) was 0.131 OD. For the same sequence, the “OD at 405 nm” value ([3]; human serum sample P7, dilution of serum sample 1:6400) was 0.087 OD, the “OD at 405 nm” value ([3]; human serum sample P7, dilution of serum sample 1:12800) was 0.061 OD and the “dependence of reactivity on serum dilution” value ([3]; serial dilutions of serum samples) was “dependent on the dilution of the serum samples”. For the same sequence, the “mice developing detectable peptide-specific antibodies” value (Balb/c mice) was “one developed detectable antibodies”, the “OD at 405 nm, reactivity of human serum sample P4” value ([4]; human serum sample P4) was 0.748 OD and the “OD at 405 nm, reactivity of human serum sample P7” value ([4]; human serum sample P7) was 1.659 OD. The “OD at 405 nm, reactivity of human serum sample P36” value ([4]; human serum sample P36) was 0.722 OD.
